Source: PubChem BioAssay AID179 (DTP/NCI, 2004)
pEC50, pIC50: −log10 of the molar value. Where “and” joins values, the source holds several entries; their conditions need not be identical. Identical values can stand only once. Calls of active or inactive are those of the source.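 How the source made its calls: active means compounds giving half or more protection of infected cells from virus-caused growth loss, again on retest; inactive means the rest.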 Where a SMILES comes first, the peptide text is derived from it. Bridges are numbered along the chain shown (N, C = ends). Roman numbers before positions name the chains, in order. The star is where a group is joined. Bz = O=C(c1ccccc1)*

Tested on: CEM cells HIV-1 protection, formazan growth assay
Assay: NCI AIDS Antiviral Assay
Settings: for pIC50: measured here: growth of uninfected CEM cells
Summary of the method: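 CEM (human) cells, HIV-1 infected vs uninfected, 5-point dosing, formazan growth read-out. Retest threshold 50% protection.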

Row | Structure (SMILES) | outcome | pEC50 | pIC50
1 | CCCCCCCCCCNC1CC(OC2CC(O)(C(O)CO)Cc3c(O)c4c(c(O)c32)C(=O)c2c(OC)cccc2C4=O)OC(C)C1O (stereo not drawn) | inactive | – | –
2 | O=C(Nc1cccc(C(F)(F)F)c1)C(Cl)=C(Cl)Cl | – | < 3.70 | 5.63
3 | COc1ccc(C/C=C(\C)CCO)cc1 | – | < 3.70 | 3.90
4 | CCOC(=O)NC(=O)c1cn(CCSCCOC(=O)NCCCCCCNC(=O)OCCSCCn2cc(C(=O)NC(=O)OCC)c(=O)[nH]c2=O)c(=O)[nH]c1=O | inactive | – | –
5 | COc1cc(OC)c2c(c1)OC1OC(=O)CC21 (stereo not drawn) | – | < 3.68 | < 3.68
6 | O=S(CC(O)c1ccccc1)c1ccccc1 (stereo not drawn) | – | < 3.70 | 4.63
7 | Clc1nc(Nc2nc3ccccc3[nH]2)nc(Cl)c1Cc1ccccc1 | inactive | – | –
8 | CC(=O)Oc1ccc2c(c1)[nH]c1c3ccc(OC(C)=O)cc3oc(=O)c21 | – | < 3.70 | 4.93
9 | Nc1nn2cc3c(nc2c1N=Nc1ccccc1)-c1ccccc1C3 | – | < 3.70 | < 3.70
10 | O=C1CC[C@H](O)Cc2ccc(O)c(c2)-c2cc(ccc2O)CC1O (stereo partly drawn) | – | < 3.12 | 3.14
11 | COc1ccc(/C=N/NC(=S)Nc2ccccc2)cc1 | – | < 3.70 | < 3.70
12 | CCNC(=O)C1CCCN1C(=O)C(CCCN=C(N)N)NC(=O)C(CC(C)C)NC(=O)C(Cc1c[nH]c2ccccc12)NC(=O)C(Cc1ccc(O)cc1)NC(=O)C(CO)NC(=O)C(Cc1c[nH]c2ccccc12)NC(=O)C(Cc1cnc[nH]1)NC(=O)C1CCC(=O)N1 (stereo not drawn) | – | < 3.75 | < 3.75
13 | CC1=C2CCCC2C/C(=N/Nc2ccc([N+](=O)[O-])cc2[N+](=O)[O-])CC1 (stereo not drawn) | inactive | – | –
14 | Nc1c(S(=O)(=O)c2ccccc2)c2nc3ccccc3nc2n2c1nc1ccccc12 | – | < 5.05 | < 5.05
15 | C=C1CCCCCCCCCCC12SCCCS2 | – | < 3.70 | < 3.70
16 | NNc1nncc2[nH]cnc12 | – | < 3.70 | < 3.70
17 | OCC(O)C(O)C(O)c1nn(-c2ccccc2)c2nc3cc(Cl)c(Cl)cc3nc12 (stereo not drawn) | inactive | – | –
18 | COC1=CC(=O)c2ccc(C(C)C)cc2C1(C)C1=NC(C)(C)CO1 (stereo not drawn) | – | < 3.82 | < 3.82
19 | NCC[PH+](c1ccccc1)c1ccccc1.NCC[PH+](c1ccccc1)c1ccccc1.[Cl-].[Pt+4] | – | < 3.70 | 4.14
20 | O=C(OC12CC3CC(CC(C3)C1)C2)c1ccc(NCc2cc(O)ccc2O)cc1 | – | < 4.70 | 6.02
21 | C/C=C/[C@@H]1[C@H]2C(=O)[C@]3(Cl)[C@@H](/C=C/C)[C@@H]3C(=O)[C@@]12Cl | inactive | – | –

Row | Structure (SMILES) | outcome | pEC50 | pIC50
22 | CCOC(=O)CN1CCC(C(O)c2cc3ccccc3[nH]2)CC1 (stereo not drawn) | – | < 3.27 | 3.28
23 | CC(Oc1ccc(OCC2CCCCC2)cc1)C(=O)NCCO (stereo not drawn) | – | < 3.53 | 4.38
24 | O=C(O)CCNS(=O)(=O)c1ccc([N+](=O)[O-])cc1 | inactive | – | –
25 | CC(C)(C)OC(=O)C1/C(=C/CBr)CN1C(=O)OC(C)(C)C (stereo not drawn) | – | < 3.70 | 5.40
26 | C(=C\c1c2oc(-c3ccccc3)cc(-c3ccccc3)c-2c2ccccc12)/C=C1\c2ccccc2-c2c(-c3ccccc3)cc(-c3ccccc3)[o+]c21 | – | < 5.17 | < 5.17
27 | N=c1c2sc3nc4ccccc4n3c2ncn1Cc1ccccc1 | – | < 4.00 | < 4.00
28 | Nc1scc2[nH]c3ccccc3[n+]12 | – | < 3.70 | 4.81
29 | C=C(c1cccn1S(=O)(=O)c1ccccc1)c1cccn1S(=O)(=O)c1ccccc1 | – | < 4.00 | 4.59
30 | O=C1NC(=O)/C(=C/c2ccc(S(=O)(=O)N/N=C/c3ccc(Cl)cc3)cc2)N1 | – | < 3.70 | 3.91
31 | c1nc2nc3c(cn2n1)CCCC3 | inactive | – | –
32 | COc1cccc2nc3cc(C)c(C)cc3nc12 | – | < 4.52 | < 4.52
33 | CCC1C2CC3C4N(C)c5ccccc5C45CC(C2C5O)N3C1O (stereo not drawn) | inactive | – | –
34 | COc1cc(C)cc2c1C(=O)C(NC(C)=O)=CC2=O | – | < 3.70 | 4.93
35 | CCOC(=O)C[C@](C)(O)C1CCCN1 (stereo partly drawn) | inactive | – | –
36 | C=CCOc1ccc(C2C(C(=O)OCC)C(=O)CC(C)(O)C2C(=O)OCC)cc1OC (stereo not drawn) | – | < 3.70 | < 3.70
37 | COc1cc2c(c3oc(=O)c4c(c13)CCC4=O)[C@@H]1C=CO[C@@H]1O2 | – | < 4.00 | 4.16
38 | Cc1cccc(-c2nc3sc(-c4cccc(C)n4)nc3s2)n1 | inactive | – | –
39 | COc1cccc(C2ON=C(c3ccccc3)N2C23CC4CC(CC(C4)C2)C3)c1 (stereo not drawn) | – | < 3.70 | 4.23
40 | CCCCCCN(C(=O)Oc1ccccc1)C(C#N)c1ccccc1 (stereo not drawn) | – | < 3.70 | < 3.70
41 | O=C1CCC(=O)N1C(c1ccccc1)(c1ccccc1)c1ccccc1 | – | < 3.70 | < 3.70
42 | C/C=C1\CN(C)C[C@H]2Cc3c(n(OC)c4ccccc34)C(=O)C[C@@H]12 | – | < 4.62 | < 4.62

Row | Structure (SMILES) | outcome | pEC50 | pIC50
43 | Nn1c(-c2ccccc2)nn(C(=O)c2ccccc2)c1=O | – | < 3.70 | < 3.70
44 | CC1(C)O[C@]2(C)CC[C@@H]1[C@@H](O)[C@@H]2N1CCCC1 | – | < 3.38 | < 3.38
45 | COc1cc(O)c2cc1Oc1ccc(cc1)CC1c3cc(c(OC)cc3CCN1C)Oc1c(OC)c(OC)c(OC)c3c1[C@H](C2)N(C)CC3 (stereo partly drawn) | inactive | – | –
46 | C=CS(=O)(=O)CCN1CC1 | – | < 3.70 | < 3.70
47 | COC(=O)C1=C(C(=O)OC)C2(c3ccccc3)c3ccccc3C(=O)C1N2C1CCCCC1 (stereo not drawn) | – | < 3.70 | 4.78
48 | Cn1c(=O)cc(CC#N)c2ccccc21 | – | < 3.70 | < 3.70
49 | Cc1ccc(NC(=O)c2cc(S(=O)(=O)Nc3nc4ncccc4[nH]3)c(SSc3cc(Cl)c(C(=O)Nc4ccc(C)cc4)cc3S(=O)(=O)Nc3nc4ncccc4[nH]3)cc2Cl)cc1 | – | < 3.70 | < 3.70
50 | O=Nc1c(-c2ccccc2)nc2ncccn12 | – | < 3.70 | 5.67
51 | ClC1=C(Cl)C(Cl)(Cl)c2c3c(c4c(c21)C(Cl)(Cl)C(Cl)=C4Cl)C(Cl)(Cl)C(Cl)=C3Cl | – | < 5.06 | < 5.06
52 | Cn1c2c(c3ccccc31)CCN1C[C@@H]3CCCC[C@H]3C[C@@H]21 | – | < 4.00 | 5.79
53 | COc1cc2c(c3oc(=O)cc(C)c13)[C@@H](OC(=O)C13CCC(C)(C(=O)O1)C3(C)C)[C@@H](OC(=O)C13CCC(C)(C(=O)O1)C3(C)C)C(C)(C)O2 (stereo partly drawn) | – | 6.49 | < 3.70
54 | CC(=O)c1c(O)ccc(O)c1-n1nc(C)c([N+](=O)[O-])c1C | – | < 3.65 | < 3.65
55 | O=C1NCC2(CCNCC2)N1 | – | < 3.70 | < 3.70
56 | COc1cc(C2C(C(=O)Nc3cc(F)c(F)cc3F)=C(C)NC(C)=C2C(=O)Nc2cc(F)c(F)cc2F)ccc1O | – | < 4.49 | < 4.49
57 | Cc1c(C(=O)C/C(=N/NC(=O)C[n+]2ccccc2)C(=O)Nc2ccccc2)[n+](=O)c2ccccc2n1O | – | < 4.75 | < 4.75
58 | CC1(C)CCc2c(cc3c(c2O)CCC(C)(C)O3)O1 | – | < 3.70 | < 3.70
59 | COc1ccc(NC(=S)N/N=C(\c2ccccc2)c2ccccn2)cc1 | – | < 6.70 | 7.04
60 | CCCNc1nc2c(c(=O)n1-c1ccccc1)C=C(C(=O)OC)CCN2S(=O)(=O)c1ccc(C)cc1 | – | < 4.85 | < 4.85
61 | N#C/C(=C\c1ccccc1F)C(=O)O | – | < 3.17 | 3.52
62 | COC(=O)C(=O)C(C(=O)C=C(C)C)C(=O)C(=O)Nc1ccc(Cl)cc1C (stereo not drawn) | inactive | – | –
63 | CNCCOC(c1ccccc1)c1ccccc1C (stereo not drawn) | – | < 3.70 | 4.03 and 4.60

Row | Structure (SMILES) | outcome | pEC50 | pIC50
64 | O=c1[nH]c(=O)n(C2OC(CO)C(O)C2O)cc1NN=NCc1ccccc1 (stereo not drawn) | – | < 3.74 | < 3.74
65 | Cc1ccc(S(=O)(=O)N/N=C2/CCC3(O)CC2(C)CCC2[C@H]3CC2(C)C)cc1 (stereo partly drawn) | – | < 3.70 | 4.47
66 | C/C(=N/NC(=S)N1CC2CCC(CC2)C1)c1cnccn1 | – | < 5.65 | 7.31
67 | N#CCCN(CCC#N)c1ccc(/C=C2\SC(=S)NC2=O)cc1Br | – | < 3.70 | < 3.70
68 | CCCc1cc(=O)oc2c3c(c4c(c12)OC(C)(C)C=C4)O[C@H](C)[C@@H](C)[C@@H]3O | – | 5.33 | 4.79
69 | COc1ccc(C2CC(C)=Nc3c([nH]c(=S)[nH]c3=O)N2)cc1 (stereo not drawn) | – | < 4.78 | < 4.78
70 | CCOC(=O)/C(C#N)=C/c1ccc(OC)cc1 | – | < 3.81 | < 3.81
71 | O=C(Nc1ccc(S(=O)(=O)Nc2nccs2)cc1)c1cccnc1Nc1cccc(Cl)c1 | inactive | – | –
72 | Cc1cc(O)ccc1N=O | – | < 3.70 | 5.47
73 | COC(=O)C(CSSCC(NC(=O)CNC(=O)c1ccccc1)C(=O)OC)NC(=O)CNC(=O)c1ccccc1 (stereo not drawn) (I: Bz-Gly-Cys-OMe / II: Bz-Gly-Cys-OMe; disulfide I:2-II:2; configuration not given here) | – | < 3.93 | 4.41
74 | Cc1cc(C)nc(NS(=O)(=O)c2ccc(Nc3c4ccccc4nc4c(C(=O)Nc5ccc(S(=O)(=O)Nc6cc(C)on6)cc5)cccc34)cc2)n1 | – | < 4.45 | < 4.45
75 | O=C1Sc2ccc(Br)cc2C(=O)N2CSCC12 (stereo not drawn) | – | < 3.70 | < 3.70
76 | CCOC(=O)c1nc(SC)sc1NC(=O)c1ccc(Cl)cc1 | – | < 3.70 | 3.71
77 | CC(=O)OCC1=C(C)C[C@H]([C@@H](COC(C)=O)C2CCC3C4C[C@H]5O[C@]56CC=CC(=O)[C@]6(C)C4CC[C@@]32C)OC1=O (stereo partly drawn) | – | < 3.70 | 6.87
78 | Cc1[nH]c2c(ccc3c2ccc2c(=O)c(Cl)c(C)[nH]c23)c(=O)c1Cl | – | < 3.70 | < 3.70
79 | CNC(=O)Oc1ccc(C(=O)OCCO)cc1 | – | < 3.70 | 4.02
80 | O=C1N(O)C2(C=CCCC2)/C(=N/O)C12CCCCC2 (stereo not drawn) | – | < 4.15 | < 4.15
81 | CC1CCCN(CC(O)CN2CCN(CC(O)CN3CCCC(C)C3)C(C)C2)C1 (stereo not drawn) | – | < 3.50 | < 3.50
82 | O=S(=O)(NCCO)c1cc[c]([Sb](=[O])([OH])[OH])cc1 | – | < 3.70 | < 3.70
83 | O[C@]12c3ccccc3C1CCCCC2N1CCOCC1 (stereo partly drawn) | – | < 3.70 | < 3.70
84 | Cc1ccccc1S(=O)(=O)Nn1cnc2ccc(S(=O)(=O)Nc3ccc(Cl)cc3)cc2c1=O | inactive | – | –
